According to patent US4283494A, “Microbial lipase, process for its preparation and microbiologically pure culture therefor” (Meito Sangyo Kabushiki Kaisha, priority 1978, dated 1981):
Like-named read-outs stand apart in the source and are kept apart here.

Columns and labels:
[1] = system: microbial lipase of the invention, Alcaligenes sp. PL-679 Meito (FERM-P No. 3783, ATCC 31371); settings: 10 min
[2] = system: microbial lipase of the invention, Alcaligenes sp. PL-679 Meito (FERM-P No. 3783, ATCC 31371); test: Lipase activity inhibition by inhibiting reagents (contact at 37° C. for 10 minutes, then olive oil emulsion assay); type: biochemical; settings: inhibiting reagent 10^-2 mole, lipase about 3 U/ml
Procedure: An aqueous solution of the lipase sample (about 3 units/ml) is contacted with each of the inhibiting agents at 37° C. for 10 minutes, and the lipase activity is measured.
The lipase in a concentration of about 3 U/ml is contacted with various inhibiting reagents at 37° C. for 10 minutes, and then the lipase activity is measured.
Glycine buffer (1 mole, pH 8.7): 2.0 ml
Olive oil emulsion: 2.5 ml
The olive oil emulsion is prepared by adding 20 g of olive oil to 180 ml of a 10% aqueous solution of gum arabic, homogenizing the mixture at 11,000 r.p.m. for 15 minutes while it is cooled to 5°-10° C., and adjusting the pH of the homogenized mixture to 8.7.
The reaction mixture is placed in a 25 ml glass stopper tube, and reacted exactly for 10 minutes at 37° C. Then, the reaction is stopped by adding 1 ml of 2 N sulfuric acid, and 15 ml of a mixture of n-heptane and isopropanol in a ratio of 11:4 is added. The mixture is vigorously shaken for 30 seconds, and allowed to stand for more than 30 minutes. […] The mixture is treated in the same way as above, and the resulting product is titrated with a potassium hydroxide solution, and the measured value obtained is substracted from the measured value obtained above. The amount of fatty acid liberated is calculated from the resulting titration value with reference to the standard line prepared by using a known amount of palmitic acid. […]

[3] = system: Lipase I of Japanese Laid-Open Patent Publication No. 21387/77, Alcaligenes sp. PL-266 Meito; settings: cited from earlier work
[4] = system: Lipase II of Japanese Laid-Open Patent Publication No. 21387/77, Alcaligenes sp. PL-266 Meito; settings: cited from earlier work
[5] = concentration of bile salt 0.2%
[6] = concentration of bile salt 0.4%
[7] = concentration of bile salt 0.6%
[8] = concentration of bile salt 0.8%

SMILES	Lipase activity, percentage based on the lipase activity in the absence of a bile salt [1, 5] [%]	Lipase activity, percentage based on the lipase activity in the absence of a bile salt [1, 6] [%]	Lipase activity, percentage based on the lipase activity in the absence of a bile salt [1, 7] [%]	Lipase activity, percentage based on the lipase activity in the absence of a bile salt [1, 8] [%]	also measured
C[C@H](CCC(=O)O)[C@H]1CC[C@H]2[C@@H]3[C@H](O)C[C@@H]4C[C@H](O)CC[C@]4(C)[C@H]3C[C@H](O)[C@]12C [Cholate]	197	221	211	229	
C[C@H](CCC(=O)O)[C@H]1CC[C@H]2[C@@H]3CC[C@@H]4C[C@H](O)CC[C@]4(C)[C@H]3C[C@H](O)[C@]12C [Desoxycholate]	289	300	305	303	
C[C@H](CCC(=O)NCC(=O)O)[C@H]1CC[C@H]2[C@@H]3[C@H](O)C[C@@H]4C[C@H](O)CC[C@]4(C)[C@H]3C[C@H](O)[C@]12C [Glycocholate]	218	221	232	224	
CCOC(=O)OC(=O)OCC [ethoxyformic anhydride]					Activity inhibition of the lipase [2]: about 70%
II [iodine]					Activity inhibition of the lipase [2]: about 95%
O=C(O)CI [monoiodoacetic acid]					Activity inhibition by monoiodoacetic acid ([3]; concentration 10^-3 mole): Not inhibited; Activity inhibition by monoiodoacetic acid ([4]; concentration 10^-3 mole): Not inhibited
O=C1O[C@H]([C@@H](O)CO)C([O-])=C1O.[Na+] [sodium ascorbate]					Activity inhibition by sodium ascorbate ([3]; concentration 10^-2 mole): Not inhibited; Activity inhibition by sodium ascorbate ([4]; concentration 10^-2 mole): Not inhibited
